Measurements from publication PMC9780857 (International Journal of Molecular Sciences, 2022).
Where two headings read alike, the source gives them in different places.

Columns and labels:
[1] = biological target: T1, hOCT2 (Homo sapiens, UniProt O15244); conditions: MPP higher affinity than metformin
T1 sequence (O15244 1-555): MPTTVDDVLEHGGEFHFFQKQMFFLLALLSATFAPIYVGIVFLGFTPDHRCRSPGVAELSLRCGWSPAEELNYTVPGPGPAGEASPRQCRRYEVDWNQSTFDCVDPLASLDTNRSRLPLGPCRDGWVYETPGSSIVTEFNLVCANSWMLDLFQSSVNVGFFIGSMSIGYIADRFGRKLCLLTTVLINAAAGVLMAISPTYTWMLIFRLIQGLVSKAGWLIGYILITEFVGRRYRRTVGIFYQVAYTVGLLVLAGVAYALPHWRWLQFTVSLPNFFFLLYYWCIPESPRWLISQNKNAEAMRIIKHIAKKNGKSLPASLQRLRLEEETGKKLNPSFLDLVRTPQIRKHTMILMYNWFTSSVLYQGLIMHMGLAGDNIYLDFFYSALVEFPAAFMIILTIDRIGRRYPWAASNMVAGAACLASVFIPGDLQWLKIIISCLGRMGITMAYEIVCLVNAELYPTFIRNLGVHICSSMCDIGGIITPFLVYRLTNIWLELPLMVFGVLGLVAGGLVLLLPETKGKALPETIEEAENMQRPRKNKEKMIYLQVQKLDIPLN
Experimental: (§1) The uptake assays were performed as previously described in 24-well plates. […] After incubation, the uptake was stopped by aspirating the reaction mixture and washing the cells three times with 0.4 mL ice-cold PBS buffer. Cells were then solubilized with 0.6 mL of 1 N NaOH, overnight. The whole content of each well (0.6 mL) was transferred to a scintillation vial (Perkin Elmer). The radio-labelled amount was determined by liquid scintillation counting.
(§2) All experiments were conducted on two separate days in triplicate.
(§3) The cellular protein amounts were analyzed in parallel to the transport experiments by the Bradford method as previously described.
(§4) The Km and Vmax values were obtained using SigmaPlot version 13 by fitting the Michaelis–Menten equation V = Vmax*[S]/(Km + [S]), where V refers to the rate of substrate transport, Vmax refers to the maximum rate of substrate transport, [S] refers to the concentration of substrate, and Km is defined as the concentration of substrate at the half-maximal transport rate.

[2] = biological target: T2, mOct2 (Mus musculus, UniProt O70577); conditions: MPP higher affinity than metformin
T2 sequence (O70577 1-553): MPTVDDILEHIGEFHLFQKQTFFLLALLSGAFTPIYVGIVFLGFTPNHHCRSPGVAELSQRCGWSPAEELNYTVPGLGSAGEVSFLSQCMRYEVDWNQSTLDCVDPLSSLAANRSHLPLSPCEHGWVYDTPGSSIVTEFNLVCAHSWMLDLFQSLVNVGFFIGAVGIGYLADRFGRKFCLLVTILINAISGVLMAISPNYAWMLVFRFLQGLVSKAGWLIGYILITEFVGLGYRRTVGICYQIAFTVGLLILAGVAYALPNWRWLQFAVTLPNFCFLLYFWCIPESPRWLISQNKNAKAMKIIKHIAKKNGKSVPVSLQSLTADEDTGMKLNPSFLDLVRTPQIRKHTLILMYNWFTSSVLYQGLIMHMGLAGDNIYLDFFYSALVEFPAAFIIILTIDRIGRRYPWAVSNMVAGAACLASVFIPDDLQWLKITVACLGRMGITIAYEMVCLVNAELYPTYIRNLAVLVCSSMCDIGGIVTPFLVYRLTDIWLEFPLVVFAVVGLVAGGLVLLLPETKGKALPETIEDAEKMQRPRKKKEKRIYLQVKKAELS
Experimental: as §1, §2, §3, §4

[3] = test system: OCT2; set-up: method as in PMID 19833842; conditions: OCT2-overexpressing HEK293 cells; read-out: IC50, YM155 uptake; cited from earlier work
[4] = biological target: T1, hOCT2; assay: Inhibition of hOCT2-mediated 14C-metformin uptake in transfected HEK293 cells; assay type: cell-based; set-up: expressed in transfected cells; host or cells: HEK293 (stably transfected); conditions: HEK293; for inhibition at 10 µM: read-out: Inhibitory Effects (%) hOCT2 10 µM Mean; for inhibition at 100 µM: read-out: Inhibitory Effects (%) hOCT2 100 µM Mean
Experimental: as §1
(§5) All inhibition experiments were conducted on at least two separate days in triplicate.
(§6) For screening experiments, cis-inhibition was carried out in duplicate by measuring the uptake of the labeled probe substrate in the absence and presence of 10 µM or 100 µM of the respective pesticide or drug. […] Inhibitory effects in percent were calculated from net-uptake. […]

[5] = biological target: T2, mOct2; assay: Inhibition of mOct2-mediated 14C-metformin uptake in transfected HEK293 cells; assay type: cell-based; set-up: expressed in transfected cells; host or cells: HEK293 (stably transfected); conditions: HEK293; for inhibition at 10 µM: read-out: Inhibitory Effects (%) mOct2 10 µM Mean; for inhibition at 100 µM: read-out: Inhibitory Effects (%) mOct2 100 µM Mean
Experimental: as §1, §5, §6

[6] = biological target: T1, hOCT2; set-up: expressed in transfected cells; host or cells: HEK293 (stably transfected); conditions: ref 36 (Tahara et al.); read-out: Km, substrate of hOCT2; cited from earlier work
[7] = biological target: T1, hOCT2; conditions: read-out: IC50, hOCT2-mediated metformin uptake; cited from earlier work
[8] = biological target: T1, hOCT2; set-up: expressed in transfected cells; host or cells: HEK293 (stably transfected); conditions: read-out: IC50, hOCT2-mediated MPP uptake; cited from earlier work
[9] = HEK293, 10 µM test compound, 1 µM [14C]metformin, 2 min, negative = stimulation
[10] = HEK293, 100 µM test compound, 1 µM [14C]metformin, 2 min, negative = stimulation
[11] = 10 µM test compound, 1 µM [14C]metformin, 2 min, negative = stimulation

Q: Which results are given for `C[n+]1ccc(-c2ccccc2)cc1.[I-]` [MPP, 1-Methyl-4-phenylpyridinium iodide]?
A: Fold difference in affinity (Km) of hOCT2 between MPP and metformin [1]: 64 fold; Fold difference in affinity (Km) of mOct2 between MPP and metformin [2]: 89 fold

Q: Which results are given for `CCN(CC)CCNC(=O)c1ccc(N)cc1` [Procainamid]?
A: IC50 [3]: 92 µM; inhibition at 10 µM [4]: -20%; inhibition at 100 µM [4]: -44%; inhibition at 10 µM [5, 9]: -16%; inhibition at 100 µM [5, 10]: -30%

Q: With `CNC(=C[N+](=O)[O-])NCCSCc1ccc(CN(C)C)o1` [Ranitidine] as the compound, how does the inhibition at 10 µM [4, 9] read?
A: Its inhibition at 10 µM is -43%.

Q: And the inhibition at 100 µM [4, 10]?
A: The inhibition at 100 µM was -33%.

Q: What about the inhibition at 10 µM [5] of the same compound?
A: Its inhibition at 10 µM is -37%.

Q: And the inhibition at 100 µM [5]?
A: The inhibition at 100 µM was -16%.

Q: What about the Km [6] of the same compound?
A: Its Km is 65.2 µM.

Q: For `Clc1cccc(Cl)c1N=C1NCCN1` [Clonidine], which IC50 [7] is on record?
A: Its IC50 is 0.68 µM.

Q: What about the “Inhibitory Effects (%) hOCT2 10 µM Mean” value [4, 11] of the same compound?
A: Its value is 40%.

Q: What about the inhibition at 10 µM [4, 9] of the same compound?
A: The inhibition at 10 µM was 60%.

Q: And the inhibition at 100 µM [4, 10]?
A: Its inhibition at 100 µM is 76%.

Q: And the “Inhibitory Effects (%) mOct2 10 µM Mean” value [5, 11]?
A: Its value is 54%.

Q: And the inhibition at 10 µM [5, 9]?
A: Its inhibition at 10 µM is 46%.

Q: What about the inhibition at 100 µM [5, 10] of the same compound?
A: The inhibition at 100 µM was 89%.

Q: And the IC50 [8]?
A: The IC50 was 6 µM.
